Experimental data reported in ChEMBL document CHEMBL6134914, “Novel Bicyclic Heterocycles as MRGPRX2 Antagonists for Treating Inflammatory Diseases” (ACS Med Chem Lett, 2025).

molecular target: T1, Mas-related G-protein coupled receptor member X2 (Homo sapiens, UniProt Q96LB1); assay: Inhibition of human MRGPRX2 expressed in CHO-K1 cells assessed as Ca2+ release incubated for 30 mins by FLIPR calcium mobilization assay; assay type: functional, cell-based
T1 sequence (Q96LB1 whole entry): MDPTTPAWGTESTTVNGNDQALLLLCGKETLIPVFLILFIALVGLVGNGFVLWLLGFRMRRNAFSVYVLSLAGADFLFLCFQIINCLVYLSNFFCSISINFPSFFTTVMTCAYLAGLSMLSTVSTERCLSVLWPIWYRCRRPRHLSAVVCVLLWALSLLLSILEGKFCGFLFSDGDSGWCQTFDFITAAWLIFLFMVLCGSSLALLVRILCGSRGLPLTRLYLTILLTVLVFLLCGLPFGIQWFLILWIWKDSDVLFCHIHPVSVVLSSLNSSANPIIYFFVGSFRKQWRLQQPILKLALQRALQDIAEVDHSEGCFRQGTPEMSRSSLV

IC50, 0.1 nM:
Cc1csc(C2(CNc3cc(C(F)(F)F)nc4ccc(Cl)cc34)CN(S(N)(=O)=O)C2)n1
NS(=O)(=O)N1CCC(CNc2cc(C(F)(F)F)nc3ccc(Cl)cc23)(c2ccc(F)cn2)CC1
NS(=O)(=O)N1CC(CNc2cc(C(F)(F)F)nc3ccc(Cl)cc23)(c2ccc3ccccc3n2)C1
N#Cc1cnn(C2(CNc3cc(C(F)(F)F)nc4ccc(Cl)cc34)CN(C(N)=O)C2)c1
NS(=O)(=O)N1CC(CNc2cc(C(F)(F)F)nc3ccc(Br)cc23)(c2ccc(F)cc2)C1
NC(=O)N1CCC(CNc2cc(C(F)(F)F)nc3ccc(Cl)cc23)(c2ccc(F)cn2)C1 (stereo unspecified)
